Measurements: patent US9198879B2, “Pharmacologically optimized multimodal drug delivery system for nordihydroguiaretic acid (NDGA)” (Napo Pharmaceuticals, Inc., priority 2011, dated 2015)
Entries after “also recorded” stand apart in the source; their conditions may differ.

Assays:
fat/STZ rat [1] = assay: Basal hepatic glucose production by intravenous infusion of radiolabeled glucose; assay type: in vivo; conditions: no insulin infused, p<0.05
Method: (§1) Studies were also conducted to determine the mechanism by which NDGA lowers glucose. To do so, NDGA was administered to determine the effects of NDGA on insulin-stimulated glucose disposition and on basal hepatic glucose production using the high fat diet fed/streptozotocin (STZ) rat model of NIDDM. Whole-body insulin-stimulated glucose disposition was measured using a constant intravenous glucose/insulin infusion, in which the steady-state plasma insulin concentration (SSPI) is held constant and the steady-state plasma glucose concentration (SSPG) is a measure of net glucose clearance. […] In these same studies basal hepatic glucose production was measured using an intravenous infusion of radiolabeled glucose (no insulin was infused).
(§2) Studies were conducted to determine the effects of NDGA (masoprocol) on insulin-stimulated glucose disposition and on basal hepatic glucose production using the fat/STZ rat. Whole-body insulin-stimulated glucose disposition was measured using a constant intravenous glucose/insulin infusion, in which the steady-state plasma insulin concentration (SSPI) is held constant and the steady-state plasma glucose concentration (SSPG) is a measure of net glucose clearance.

fat/STZ rat [2] = assay: Whole-body insulin-stimulated glucose disposition (SSPG) with constant intravenous glucose/insulin infusion; assay type: in vivo; conditions: steady-state plasma insulin held constant
Method: as §1, §2

[3] = system: liver triglyceride secretion; assay: Liver triglyceride secretion; assay type: in vivo; conditions: NDGA treatment
Text: (§3) It is likely that the triglyceride-lowering effect of NDGA may also be explained, at least in part, by the suppression of free fatty acid (FFA) release. Free fatty acids in the circulation can enter the liver and can be re-assembled into triglycerides by the process of re-esterification. […] It should be noted that other mechanisms for reducing triglycerides, such as increased triglyceride clearance, are not ruled out by these findings.
The triglyceride-lowering effect of NDGA may be explained by the suppression of free fatty acid (FFA) release. Free fatty acids in the circulation can enter the liver and be re-assembled into triglycerides in a process known as re-esterification.

ZDF rats = assay: Glucose and triglyceride lowering in ZDF rats; assay type: in vivo, rat
Text: In this study, the following animal models where used: • Db/db mice: homozygous mice are a model of obesity, diabetes and dyslipedemia where their leptin receptor activity is deficient. • Ob/ob mice: obese mice with diabetes. • Db/lean mice: heterozygous mice that are not diabetic. • Fat/STZ rats: non-genetically diabetic overweight rats that are fed diets enriched in fat and made hyperglycemic by chemically removing their pancreatic function to reduce insulin production by treating them with streptozotocin (STZ). • Fructose/STZ rats: non-diabetic rats that are fed diets enriched in fructose and made hyperglycemic by treating them with STZ. • ZDF rats: obese and hyperglycemic rats with other metabolic disorders.
Baseline glucose and triglyceride concentrations, where appropriate, were measured for both diabetic and normal animals.

[4] = system: fructose-fed hypertriglyceridemic rats; assay: Fructose-fed hypertriglyceridemic rat model; assay type: in vivo
Text: as §3
These reductions in free fatty acid concentration could result from either decreased production (by reduced lipolysis) or increased removal of free fatty acids from the circulation by liver, fat or muscle.

[5] = cited from earlier work
rat adipocytes = conditions: cited from earlier work
rodent models = assay: Oral NDGA in a variety of rodent models (model not given); assay type: in vivo
Method: In these studies, a variety of rodent models were used to evaluate the glucose-lowering properties and its effects on lipids, such as lowering of triglycerides. NDGA was administered orally to animals over a wide range of doses (10 to 350) mg/kg.
NDGA was effective at lowering glucose when formulated in either aqueous or lipophilic vehicles to varying degrees of efficacy.

With CC(Cc1ccc(O)c(O)c1)C(C)Cc1ccc(O)c(O)c1 (centres unmarked) [NDGA, nordihydroguaiaretic acid] the “hourly hepatic glucose production compared to vehicle” value (fat/STZ rat [1]) was “significantly reduced hourly hepatic glucose production”, the “reduction of steady-state plasma glucose concentration (SSPG) versus vehicle control group” value (fat/STZ rat [2]; p<0.05) was “approximately 30%” and the “reduction of steady-state plasma glucose concentration (SSPG) versus vehicle control group” value (fat/STZ rat [2]; p<0.05, listed as Masoprocol) was 30%. The liver triglyceride secretion [3] was “inhibit liver triglyceride secretion”, the plasma triglyceride lowering (ZDF rats) was “significantly and dramatically lowered plasma triglycerides” and the glucose lowering (ZDF rats; given orally) was “significantly lowers glucose”. The “free fatty acid (FFA) concentrations” value ([4]; fructose-fed hypertriglyceridemic rats) was “decreases free fatty acid (FFA) concentrations”, the glucose lowering ([4]; fructose-fed rats, 80 mg/kg twice daily) was “did not lower glucose levels” and the triglyceride lowering ([4]; hypertriglyceridemic rat model, low doses of 10 and 20 mg/kg) was “triglyceride-lowering effects”. The “solubility in aqueous media / water” value ([5]; aqueous media) was “poorly water-soluble; also recorded: insoluble”, the “solubility in organic solvents” value ([5]; organic solvents such as methanol and ethanol) was “soluble” and the glucose transport (rat adipocytes; adipocytes, in vitro) was “directly stimulates glucose transport”. For the same compound, the isoproterenol-induced lipolysis (rat adipocytes; rat adipocytes, in vitro (Gowri et al., 1999)) was “inhibition”, the triglyceride lowering (rodent models; CMC, PEG or Gelucire vehicles, doses as low as 10 mg/kg twice per day) was “lowered triglyceride concentrations” and the triglyceride lowering (rodent models; administered orally just once per day) was “lowered triglycerides”. For the same compound, the insulin concentrations (rodent models; highest dose studied, 350 mg/kg twice daily) was “did not result in increased insulin concentrations” and the glucose lowering (rodent models; once daily administration) was “generally ineffective at lowering glucose concentrations”.
